The target of experiment [1] is BTK (Homo sapiens, UniProt Q06187). The experiment can be described thus: Degradation of BTK protein in Namalwa cells (Western blot; DC50, Dmax). To be noted: for DC50: read-out: DC50 (BTK degradation), concentration giving 50% reduction of BTK expression level, cell line not given; for Dmax: read-out: Dmax (BTK degradation).
In experiment [2] the test system is Mino cells. The experiment can be described thus: Antiproliferative effect, MTS cell viability assay, Mino cells. Format: cell-based. The conditions noted are these: Homo sapiens, MINO, Mino mantle cell lymphoma cells; read-out: IC50 (anti-proliferation) Mino cells. The gist of the method: (§1)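 Steps: seed B-cell lymphoma line; add compound at 0, 0.001, 0.01, 0.1, 1 or 10 μM; incubate 72 h; add MTS and read reduced tetrazolium (formazan) absorbance at 490 nm.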

For experiment [3], the system named is JeKo-1 cells. Nature of the experiment: Antiproliferative effect, MTS cell viability assay, JeKo-1 cells. Format: cell-based. To be noted: Homo sapiens; JeKo-1 mantle cell lymphoma cells; read-out: IC50 (anti-proliferation) JeKO-1 cells. The gist of the method:
as §1

Where only a bound is given, the exact number is not on record here.

Chain of BTK (Q06187 whole entry): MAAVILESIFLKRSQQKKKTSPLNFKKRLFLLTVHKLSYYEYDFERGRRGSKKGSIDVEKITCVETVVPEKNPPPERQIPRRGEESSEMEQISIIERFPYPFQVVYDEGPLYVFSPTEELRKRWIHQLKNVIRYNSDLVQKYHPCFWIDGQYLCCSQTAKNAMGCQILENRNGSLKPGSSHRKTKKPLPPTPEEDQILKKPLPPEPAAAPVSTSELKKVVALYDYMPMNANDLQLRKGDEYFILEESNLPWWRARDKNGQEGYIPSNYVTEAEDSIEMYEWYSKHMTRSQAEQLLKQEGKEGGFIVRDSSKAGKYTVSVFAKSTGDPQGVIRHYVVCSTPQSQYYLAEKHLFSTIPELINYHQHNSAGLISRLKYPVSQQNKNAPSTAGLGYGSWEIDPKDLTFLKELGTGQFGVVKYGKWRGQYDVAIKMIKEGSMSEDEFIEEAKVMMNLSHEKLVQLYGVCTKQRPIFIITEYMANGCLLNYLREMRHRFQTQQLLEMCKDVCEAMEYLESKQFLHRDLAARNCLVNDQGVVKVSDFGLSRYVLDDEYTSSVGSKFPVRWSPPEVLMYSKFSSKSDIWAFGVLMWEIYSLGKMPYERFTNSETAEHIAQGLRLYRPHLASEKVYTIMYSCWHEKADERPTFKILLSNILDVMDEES

As to `Nc1ncnc2c1c(-c1ccc(Oc3ccccc3)cc1)nn2C1CCN(CCN2CCC(CC3CCN(c4ccc(NC5CCC(=O)NC5=O)cc4)CC3)C2)CC1` (centres unmarked) [Compound 564, 3-((4-(4-((1-(2-(4-(4-amino-3-(4-phenoxyphenyl)-1H-pyrazolo[3,4-d]pyrimidin-1-yl)piperidin-1-yl)ethyl)pyrrolidin-3-yl)methyl)piperidin-1-yl)phenyl)amino)piperidine-2,6-dione], in experiment [1], the DC50 was 10 to 50 nM and the Dmax was above 90%. In experiment [2], the IC50 was below 1000 nM. In experiment [3], the IC50 was below 1000 nM.
With `Nc1ncnc2c1c(-c1ccc(Oc3ccccc3)cc1)nn2C1CCN(CCCN2CCC(CN3CCN(c4ccc(NC5CCC(=O)NC5=O)cc4)CC3)C2)CC1` (centres unmarked) [Compound 565, 3-((4-(4-((1-(3-(4-(4-amino-3-(4-phenoxyphenyl)-1H-pyrazolo[3,4-d]pyrimidin-1-yl)piperidin-1-yl)propyl)pyrrolidin-3-yl)methyl)piperazin-1-yl)phenyl)amino)piperidine-2,6-dione], in experiment [1], the DC50 lay within 10 to 50 nM and the greatest degradation seen (Dmax) was above 75%. For the same compound, the IC50 in experiment [2] is below 1000 nM. Moreover, the IC50 in experiment [3] was below 1000 nM.
On to `Nc1ncnc2c1c(-c1ccc(Oc3ccccc3)cc1)nn2C1CCN(CCCN2CCC(CC3CCN(c4ccc(NC5CCC(=O)NC5=O)cc4)CC3)C2)CC1` (centres unmarked) [Compound 567, 3-((4-(4-((1-(3-(4-(4-amino-3-(4-phenoxyphenyl)-1H-pyrazolo[3,4-d]pyrimidin-1-yl)piperidin-1-yl)propyl)pyrrolidin-3-yl)methyl)piperidin-1-yl)phenyl)amino)piperidine-2,6-dione], for which the DC50 in experiment [1] was in the range of 10 to 50 nM. For the same compound, the greatest degradation seen (Dmax) in experiment [1] was above 90%. Also, the IC50 was 1000 to 10000 nM in experiment [2] and below 1000 nM in experiment [3].
Take `Nc1ncnc2c1c(-c1ccc(Oc3ccccc3)cc1)nn2C1CCN(C2CCN(CC3CCN(c4ccc(N5CCC(=O)NC5=O)cc4)CC3)CC2)CC1` [Compound 568, 1-(4-(4-((4-(4-amino-3-(4-phenoxyphenyl)-1H-pyrazolo[3,4-d]pyrimidin-1-yl)-[1,4′-bipiperidin]-1′-yl)methyl)piperidin-1-yl)phenyl)dihydropyrimidine-2,4(1H,3H)-dione]: in experiment [1], the DC50 is above 50 nM and the Dmax was above 75%. In experiment [2], the IC50 fell in the range of 1000 to 10000 nM. Besides, in experiment [3], the IC50 is 1000 to 10000 nM.
Take `Nc1ncnc2c1c(-c1ccc(Oc3ccccc3)cc1)nn2C1CCN(C2CCN(CCN3CCC(c4ccc(N5CCC(=O)NC5=O)cc4)CC3)CC2)CC1` [Compound 569, 1-(4-(1-(2-(4-(4-amino-3-(4-phenoxyphenyl)-1H-pyrazolo[3,4-d]pyrimidin-1-yl)-[1,4′-bipiperidin]-1′-yl)ethyl)piperidin-4-yl)phenyl)dihydropyrimidine-2,4(1H,3H)-dione]: in experiment [1], the half-maximal degradation concentration (DC50) was 10 to 50 nM and the greatest degradation seen (Dmax) was above 90%. Also, the IC50 in experiment [2] was in the range of 1000 to 10000 nM. In addition, in experiment [3], the IC50 is 1000 to 10000 nM.
Regarding `Nc1ncnc2c1c(-c1ccc(Oc3ccccc3)cc1)nn2C1CCN(C2CCN(CCN3CCN(c4ccc(N5CCC(=O)NC5=O)cc4)CC3)CC2)CC1` [Compound 570, 1-(4-(4-(2-(4-(4-amino-3-(4-phenoxyphenyl)-1H-pyrazolo[3,4-d]pyrimidin-1-yl)-[1,4′-bipiperidin]-1′-yl)ethyl)piperazin-1-yl)phenyl)dihydropyrimidine-2,4(1H,3H)-dione], in experiment [1], the DC50 was 10 to 50 nM and the maximal degradation (Dmax) is above 90%. In addition, in experiment [2], the IC50 was in the range of 1000 to 10000 nM. In addition, the IC50 in experiment [3] fell in the range of 1000 to 10000 nM.
With `Nc1ncnc2c1c(-c1ccc(Oc3ccccc3)cc1)nn2C1CCN(C2CCN(CCCN3CCC(c4ccc(N5CCC(=O)NC5=O)cc4)CC3)CC2)CC1` [Compound 571, 1-(4-(1-(3-(4-(4-amino-3-(4-phenoxyphenyl)-1H-pyrazolo[3,4-d]pyrimidin-1-yl)-[1,4′-bipiperidin]-1′-yl)propyl)piperidin-4-yl)phenyl)dihydropyrimidine-2,4(1H,3H)-dione], in experiment [1], the DC50 fell in the range of 10 to 50 nM and the maximal degradation (Dmax) was above 90%. Besides, in experiment [2], the IC50 was below 1000 nM. In addition, in experiment [3], the IC50 is below 1000 nM.
In the case of `Nc1ncnc2c1c(-c1ccc(Oc3ccccc3)cc1)nn2C1CCN(C2CCN(CCCN3CCN(c4ccc(N5CCC(=O)NC5=O)cc4)CC3)CC2)CC1` [Compound 572, 1-(4-(4-(3-(4-(4-amino-3-(4-phenoxyphenyl)-1H-pyrazolo[3,4-d]pyrimidin-1-yl)-[1,4′-bipiperidin]-1′-yl)propyl)piperazin-1-yl)phenyl)dihydropyrimidine-2,4(1H,3H)-dione], in experiment [1], the DC50 is 10 to 50 nM and the greatest degradation seen (Dmax) was above 90%. In experiment [2], the IC50 was below 1000 nM. Further, the IC50 in experiment [3] is below 1000 nM.
On to `Nc1ncnc2c1c(-c1ccc(Oc3ccccc3)cc1)nn2C1CCN(C2CCN(CC3CCN(c4ccc(N5CCC(=O)NC5=O)cc4)CC3)C2)CC1` (centres unmarked) [Compound 573, 1-(4-(4-((3-(4-(4-amino-3-(4-phenoxyphenyl)-1H-pyrazolo[3,4-d]pyrimidin-1-yl)piperidin-1-yl)pyrrolidin-1-yl)methyl)piperidin-1-yl)phenyl)dihydropyrimidine-2,4(1H,3H)-dione], for which, in experiment [1], the DC50 is below 10 nM and the Dmax is above 75%. For the same compound, the IC50 in experiment [2] was 1000 to 10000 nM. The IC50 in experiment [3] is below 1000 nM.
Turning to `Nc1ncnc2c1c(-c1ccc(Oc3ccccc3)cc1)nn2C1CCN(C2CCN(CCN3CCC(c4ccc(N5CCC(=O)NC5=O)cc4)CC3)C2)CC1` (centres unmarked) [Compound 574, 1-(4-(1-(2-(3-(4-(4-amino-3-(4-phenoxyphenyl)-1H-pyrazolo[3,4-d]pyrimidin-1-yl)piperidin-1-yl)pyrrolidin-1-yl)ethyl)piperidin-4-yl)phenyl)dihydropyrimidine-2,4(1H,3H)-dione], in experiment [1], the 50% degradation concentration (DC50) lay in the range of 10 to 50 nM and the maximal degradation (Dmax) is above 90%. The IC50 in experiment [2] is 1000 to 10000 nM. The IC50 in experiment [3] is 1000 to 10000 nM.
Take `Nc1ncnc2c1c(-c1ccc(Oc3ccccc3)cc1)nn2C1CCN(C2CCN(CCN3CCN(c4ccc(N5CCC(=O)NC5=O)cc4)CC3)C2)CC1` (centres unmarked) [Compound 575, 1-(4-(4-(2-(3-(4-(4-amino-3-(4-phenoxyphenyl)-1H-pyrazolo[3,4-d]pyrimidin-1-yl)piperidin-1-yl)pyrrolidin-1-yl)ethyl)piperazin-1-yl)phenyl)dihydropyrimidine-2,4(1H,3H)-dione]: in experiment [1], the DC50 is below 10 nM. For the same compound, the greatest degradation seen (Dmax) in experiment [1] was above 90%. The IC50 in experiment [2] and in experiment [3] was 1000 to 10000 nM throughout.
In the case of `Nc1ncnc2c1c(-c1ccc(Oc3ccccc3)cc1)nn2C1CCN(C2CCN(CCCN3CCC(c4ccc(N5CCC(=O)NC5=O)cc4)CC3)C2)CC1` (centres unmarked) [Compound 576, 1-(4-(1-(3-(3-(4-(4-amino-3-(4-phenoxyphenyl)-1H-pyrazolo[3,4-d]pyrimidin-1-yl)piperidin-1-yl)pyrrolidin-1-yl)propyl)piperidin-4-yl)phenyl)dihydropyrimidine-2,4(1H,3H)-dione], the DC50 in experiment [1] was below 10 nM. Also, in experiment [1], the Dmax was above 90%. The IC50 was 1000 to 10000 nM in experiment [2] and below 1000 nM in experiment [3].
The matching figures for `Nc1ncnc2c1c(-c1ccc(Oc3ccccc3)cc1)nn2C1CCN(C2CCN(CCCN3CCN(c4ccc(N5CCC(=O)NC5=O)cc4)CC3)C2)CC1` (centres unmarked) [Compound 577, 1-(4-(4-(3-(3-(4-(4-amino-3-(4-phenoxyphenyl)-1H-pyrazolo[3,4-d]pyrimidin-1-yl)piperidin-1-yl)pyrrolidin-1-yl)propyl)piperazin-1-yl)phenyl)dihydropyrimidine-2,4(1H,3H)-dione]: below 10 nM, above 90%, 1000 to 10000 nM and 1000 to 10000 nM.
The like results for `Nc1ncnc2c1c(-c1ccc(Oc3ccccc3)cc1)nn2C1CCN(C2CCN(CC3CCN(c4ccc(NC5CCC(=O)NC5=O)cc4)CC3)CC2)CC1` (centres unmarked) [Compound 578, 3-((4-(4-((4-(4-amino-3-(4-phenoxyphenyl)-1H-pyrazolo[3,4-d]pyrimidin-1-yl)-[1,4′-bipiperidin]-1′-yl)methyl)piperidin-1-yl)phenyl)amino)piperidine-2,6-dione] were, in that order, 10 to 50 nM, above 90%, 1000 to 10000 nM and 1000 to 10000 nM.
As for `Nc1ncnc2c1c(-c1ccc(Oc3ccccc3)cc1)nn2C1CCN(C2CCN(CCN3CCC(c4ccc(NC5CCC(=O)NC5=O)cc4)CC3)CC2)CC1` (centres unmarked) [Compound 579, 3-((4-(1-(2-(4-(4-amino-3-(4-phenoxyphenyl)-1H-pyrazolo[3,4-d]pyrimidin-1-yl)-[1,4′-bipiperidin]-1′-yl)ethyl)piperidin-4-yl)phenyl)amino)piperidine-2,6-dione], in experiment [1], the DC50 lay within 10 to 50 nM and the greatest degradation seen (Dmax) is above 90%. Besides, the IC50 in experiment [2] is below 1000 nM. The IC50 in experiment [3] is below 1000 nM.
`Nc1ncnc2c1c(-c1ccc(Oc3ccccc3)cc1)nn2C1CCN(C2CCN(CCCN3CCC(c4ccc(NC5CCC(=O)NC5=O)cc4)CC3)CC2)CC1` (centres unmarked) [Compound 580, 3-((4-(1-(3-(4-(4-amino-3-(4-phenoxyphenyl)-1H-pyrazolo[3,4-d]pyrimidin-1-yl)-[1,4′-bipiperidin]-1′-yl)propyl)piperidin-4-yl)phenyl)amino)piperidine-2,6-dione]: in experiment [1], the 50% degradation concentration (DC50) was below 10 nM and the Dmax is above 90%. Also, the IC50 in experiment [2] is below 1000 nM. Also, in experiment [3], the IC50 was below 1000 nM.
Consider `Nc1ncnc2c1c(-c1ccc(Oc3ccccc3)cc1)nn2C1CCN(C2CCN(CCN3CCN(c4ccc(NC5CCC(=O)NC5=O)cc4)CC3)CC2)CC1` (centres unmarked) [Compound 581, 3-((4-(4-(2-(4-(4-amino-3-(4-phenoxyphenyl)-1H-pyrazolo[3,4-d]pyrimidin-1-yl)-[1,4′-bipiperidin]-1′-yl)ethyl)piperazin-1-yl)phenyl)amino)piperidine-2,6-dione], for which, in experiment [1], the DC50 was below 10 nM and the greatest degradation seen (Dmax) is above 90%. In experiment [2], the IC50 is below 1000 nM. Besides, the IC50 in experiment [3] was below 1000 nM.
